The source of these data is paper PMC11399425, “Tricyclic and tetracyclic antidepressants upregulate VMAT2 activity and rescue disease-causing VMAT2 variants” (Neuropsychopharmacology, 2024).

In series [1] the target is T1, VMAT2 (Mus musculus, UniProt Q8BRU6). Nature of the series: FFN206 uptake inhibition assay (30-min treatment) in HEK-VMAT2 cells. The conditions noted are these: for Hill Slope (inhibition): 30 min inhibition curve fit; for Imax, % vehicle (mean ± SEM): VMAT2 activity at 100 μM compound, 30 min, normalized to vehicle (100%).
Procedure: We detected colocalization of VMAT2 and FFN206 using epifluorescence microscopy (Fig. S2) and used FFN206 uptake to measure VMAT2 activity in HEK cells stably expressing mouse VMAT2 (HEK-VMAT2). We tested seven tricyclics and three tetracyclics that are approved for clinical use in humans (Fig. 1A, B). […] Next, we assessed the potency of the tricyclics and tetracyclics using dose response experiments.
For the inhibition assay, HEK-VMAT2 cells were seeded at 50,000 cells/well on day 1. […] Cells were incubated with FFN206 for 1hr. FFN206 uptake was terminated by aspirating the medium, and cells were washed twice with 200μL warm PBS (supplemented with 500μM MgCl2 and 900μM CaCl2), each with 5min incubation. Subsequently, 100μL warm PBS was added to each well and the plate was read with a Mithras LB 940 plate reader at excitation/emission filters 380nm/450nm.
Series [2] deals with T1, VMAT2. Description: FFN206 uptake upregulation assay (18-h treatment, washout) in HEK-VMAT2 cells. The format is cell-based. More on the design: The full-length mouse and human SLC18A2 cDNAs encoding VMAT2 were cloned into pcDNA3.1 vectors; expressed in transfected cells. The conditions noted are these: for Emax, % vehicle (mean ± SEM) / EC50: 18 h treatment followed by washout; for Emax, % vehicle (mean ± SEM): at Emax concentration; for Emax concentration: 18 h treatment, concentration giving Emax; for Hill slope (upregulation): 18 h upregulation curve fit; for Effect on VMAT2 activity, sustained: 10 μM, washout, vs vehicle; for Effect on VMAT2 activity, sustained / Effect on VMAT2 activity, sustained, known VMAT2 inhibitors: 18 h; for EC50: HEK-VMAT2 cells, read-out: EC50 (95% CI), VMAT2 upregulation; for Effect on VMAT2 activity, sustained, known VMAT2 inhibitors: increasing concentrations (Fig. S5).

Series [3] addresses DAT (SLC6A3) (Homo sapiens, UniProt Q01959). The note with it: 100 μM, 18 h, HEK-YFP-DAT cells. As to the method:
(§1) HEK293, HEK-VMAT2, HEK-YFP-DAT, and HEK-SERT cells were seeded at 5,000,000 cells/dish density in 10 cm tissue culture dishes. […] On the collection day, cells were washed once with cold PBS, then harvested with 2 mL Tris-EDTA buffer (25 mM Tris-HCl, 1 mM EDTA, pH 7.4) containing freshly-added protease/phosphatase inhibitors. The cells were mechanically lysed on ice by Polytron (medium setting, 5 sec on, 5 sec off, two cycles), and centrifuged at 800 x g for 10 min at 4 °C to pellet the nuclear fraction. […] The supernatant was discarded and the pellet containing membrane proteins was resuspended with Tris-EDTA buffer with inhibitors and 0.2% SDS by vortexing until the pellet was dissolved. The protein concentration was determined using Pierce™ BCA Protein Assay Kits following the manufacturer’s instructions.
(§2) Electrophoretic resolution was done in MOPS-SDS running buffer (50 mM MOPS, 50 mM Tris, 0.1% SDS, 1 mM EDTA). The proteins were transferred onto a […] PVDF membrane and stained using Revert™ 700 Total Protein Stain. The resolved proteins were visualized at 700 nm on an Odyssey® M imaging system (LI-COR, Inc.). […] For the VMAT2 blot, the membrane was incubated with rabbit serum (in 50% glycerol) containing anti-mVMAT2 antibody against C-terminal peptide ([…]) at 1:3000 dilution overnight at 4 °C [24]. For the YFP-DAT blot, the membrane was incubated with rabbit-anti-GFP antibody (A11122) at 1:1500 dilution for 2 h at room temperature. For the SERT blot, the membrane was incubated with rabbit anti-SERT antibody (A104336, Antibodies.com) at 1:1000 dilution overnight at 4 °C. IRDye® 800CW Goat anti-Rabbit IgG secondary antibody at 1:7000 dilution in 3% non-fat milk in TBST was used for all blots. The blots were visualized under 700 nm and 800 nm channels on the Odyssey® M imaging system (LI-COR, Inc.) and quantified using ImageJ and Empiria Studio.

The conditions of series [4]: ref PubChem; cited from earlier work.
Series [5] has as its target VMAT2 (Homo sapiens, UniProt Q05940). The conditions noted are these: 10 μM, 18 h, BE(2)-M17 cells.
Series [6] addresses VMAT2 P237H (Homo sapiens, UniProt Q05940, P237H). The conditions noted are these: 18 h, increasing concentration.
The subject of series [7] is nine missense VMAT2 BMVTD variants. Nature of the series: FFN206 uptake of transiently transfected VMAT2 BMVTD variants in HEK293T cells. It counts as cell-based, human. The note with it: 50 μM, 18 h, total FFN206 fluorescence.
In series [8] the target is VMAT2 P387L (Homo sapiens, UniProt Q05940, P387L). The conditions noted are these: 18 h, increasing concentration.
Series [9] concerns the target T1, VMAT2. The conditions noted are these: 100 μM, 18 h, HEK-VMAT2 cells. As to the method:
as §1, §2

The subject of series [10] is mVMAT2 mRNA. Description: RT-qPCR of mVMAT2 in HEK-VMAT2 cells. The conditions noted are these: 100 μM, 18 h, HEK293 cells. (In general: Real-time PCR tracks product formation cycle by cycle.)
Procedure: (§3) HEK-VMAT2, HEK-YFP-DAT, HEK-SERT, and BE(2)-M17 cells were seeded in 6-well tissue culture plates at 1,000,000 cells/well density. […] On the third day, medium was aspirated and the cells were directly collected in 1 mL/well of Trizol for RNA isolation [26]. RNA was reverse-transcribed into cDNA using the SuperScript™ IV VILO™ Master Mix with ezDNase™ Enzyme. Quantitative RT-qPCR was performed using PowerUp™ SYBR™ Green Master Mix and QuantStudio 3 Real-Time PCR System (ThermoFisher Scientific). The relative fold of gene expression was calculated as 2^-(∆∆Ct) normalized to GAPDH levels.
Series [11] deals with monoamine transporter mRNA (VMAT2, VMAT1, DAT, NET, SERT). Description: RT-qPCR of endogenous monoamine transporters mRNA in BE(2)-M17 cells. The format is cell-based, human. The conditions noted are these: 10 μM, 18 h.
Procedure: as §3
Series [12] relates to hDAT mRNA. Description: RT-qPCR of hDAT in HEK-YFP-DAT cells. It counts as cell-based, human. The note with it: 100 μM, 18 h, HEK293 cells.
Procedure: as §3
Series [13] concerns the target T2, SERT (SLC6A4) (Homo sapiens, UniProt P31645).
T2 construct: expressed in transfected cells
It counts as cell-based. The procedure: as §1
Electrophoretic resolution was done in MOPS-SDS running buffer (50 mM MOPS, 50 mM Tris, 0.1% SDS, 1 mM EDTA). The proteins were transferred onto a […] PVDF membrane and stained using Revert™ 700 Total Protein Stain. The resolved proteins were visualized at 700 nm on an Odyssey® M imaging system (LI-COR, Inc.). […] The blots were visualized under 700 nm and 800 nm channels on the Odyssey® M imaging system (LI-COR, Inc.) and quantified using ImageJ and Empiria Studio.

In series [14] the test system is hSERT mRNA. Nature of the series: RT-qPCR of hSERT in HEK-SERT cells. The note with it: 100 μM, 18 h, HEK293 cells.
Procedure: as §3

The structures appear in SMILES notation.

Usually IC50 stands for the concentration at which inhibition is half-maximal. Higher therefore signals weaker potency in that assay. With `CN(C)CCC=C1c2ccccc2CCc2ccccc21` [AMI, Amitriptyline], in series [1], inhibition was half-maximal at 12.4 µM (IC50); the “Hill Slope (inhibition)” value is listed as “–1.173”; the “Imax, % vehicle (mean ± SEM)” value worked out at 8.47 ± 1.88 % vehicle. Moreover, in series [2], the “Emax, % vehicle (mean ± SEM)” value amounted to 237.26 ± 7.63 % vehicle; the Emax concentration was determined as 31.62 µM; the “Hill slope (upregulation)” value is on record as 1.728.
One may read the EC50 as the concentration that produces a half-maximal response. Regarding `CC(CN(C)C)CN1c2ccccc2CCc2ccccc21` (stereo not shown) [TRI, Trimipramine], in [1], the IC50 was found to be 13.1 µM; the “Hill Slope (inhibition)” value is listed as “–1.173”; the “Imax, % vehicle (mean ± SEM)” value is recorded as 5.87 ± 1.33 % vehicle. Further, in series [2], the “Effect on VMAT2 activity, sustained” value is “significant upregulation of VMAT2 activity”; the EC50 turned out to be 31.1 µM; the “Emax, % vehicle (mean ± SEM)” value was 194.63 ± 22.32 % vehicle; the Emax concentration turned out to be 100 µM. For the same molecule, the “Hill slope (upregulation)” value in [2] worked out at 1.939.
Consider `O=C(CCCN1CCC(O)(c2ccc(Cl)cc2)CC1)c1ccc(F)cc1` [haloperidol], for which the “Effect on VMAT2 activity, sustained, known VMAT2 inhibitors” value in [2] is “no upregulation of VMAT2 activity was observed”.
What is called logP is the decadic logarithm of the partition coefficient of the neutral form, usually between octanol and water. Consider `CN1CCN2c3ccccc3Cc3ccccc3C2C1` (stereo not shown) [MIA, Mianserin], for which the “Total DAT protein” value in [3] is “did not affect total DAT protein”. The logP in series [4] is listed as 3.4. The “Endogenous VMAT2 activity” value in series [5] (followed by washout) is given as 270 % of vehicle. The “Endogenous VMAT2 activity without washout” value in [5] (without drug washout) was “significant upregulation of endogenous VMAT2 activity”. Also, the “Variant VMAT2 activity, dose-response” value in series [6] and in [8] was “dose-dependent upregulation” each time. In addition, the “Activity of all VMAT2 variants” value in [7] was “significant upregulation of activity of all VMAT2 variants”.
In the case of `CN(C)CCCN1c2ccccc2CCc2ccccc21` [IMI, Imipramine], the “Total DAT protein” value in series [3] is given as “did not affect total DAT protein”. In addition, the “Total VMAT2 protein” value in series [9] is “significant increase”. For the same molecule, in [10], the “VMAT2 mRNA expression” value is on record as “elevated mRNA expression”. In addition, in series [7], the “Activity of all VMAT2 variants” value is given as “significant upregulation of activity of all VMAT2 variants”. Further, in series [1], the concentration for half-maximal inhibition (IC50) is 17.3 µM and the “Hill Slope (inhibition)” value is reported as “–1.195”. For the same molecule, the “Monoamine transporter mRNA (including VMAT2)” value in series [11] is on record as “no upregulation in any monoamine transporter mRNA”. Besides, in series [2], the “Effect on VMAT2 activity, sustained” value was “significant upregulation of VMAT2 activity”; the EC50 came out at 29.9 µM; the “Emax, % vehicle (mean ± SEM)” value is given as 245.36 ± 15.06 % vehicle; the “Hill slope (upregulation)” value is 1.505. Besides, the “Emax, % vehicle (mean ± SEM)” value in series [2] (listed as imipramine) came out at 245.36 % vehicle. Besides, in series [12], the “DAT mRNA expression” value is recorded as “elevated mRNA expression”. Also, the “Total SERT protein” value in series [13] is given as “significantly increased total SERT protein”. Besides, the “SERT mRNA expression” value in [14] is “elevated mRNA expression”.
For `COc1cc2c(cc1OC)C1CC(=O)C(CC(C)C)CN1CC2` (stereo not shown) [TBZ, tetrabenazine], in series [1], the IC50 turned out to be 0.037 µM; the “Hill Slope (inhibition)” value is “–0.598”; the “Imax, % vehicle (mean ± SEM)” value amounted to 9.51 ± 0.67 % vehicle. The “Effect on VMAT2 activity, sustained, known VMAT2 inhibitors” value in [2] is “no upregulation of VMAT2 activity was observed”.
`CN1CCN2c3ncccc3Cc3ccccc3C2C1` (stereo not shown) [MIR, mirtazapine]: in series [1], the IC50 is 170 µM; the “Hill Slope (inhibition)” value is recorded as “–0.978”; the “Imax, % vehicle (mean ± SEM)” value is on record as 63.27 ± 7.1 % vehicle. Moreover, in series [2], the EC50 is 35.1 µM; the “Emax, % vehicle (mean ± SEM)” value is recorded as 175.11 ± 7.95 % vehicle; the Emax concentration was 100 µM; the “Hill slope (upregulation)” value is 2.486.
For the molecule `CNCCCN1c2ccccc2CCc2ccccc21` [DES, Desipramine], in [1], half-maximal inhibition (IC50) was put at 16.2 µM; the “Hill Slope (inhibition)” value is given as “–1.176”; the “Imax, % vehicle (mean ± SEM)” value stood at 7.51 ± 1.28 % vehicle. Moreover, in series [2], the “Effect on VMAT2 activity, sustained” value is given as “significant upregulation of VMAT2 activity”; the EC50 is 17.1 µM; the “Emax, % vehicle (mean ± SEM)” value was 177.59 ± 5.96 % vehicle; the Emax concentration worked out at 56.23 µM. Also, the “Hill slope (upregulation)” value in [2] was 1.530.
Take `CNCCCC1c2ccccc2C=Cc2ccccc21` [PRO, Protriptyline]: in series [1], the IC50 was 4.35 µM; the “Hill Slope (inhibition)” value is on record as “–1.042”; the “Imax, % vehicle (mean ± SEM)” value is reported as 2.93 ± 0.24 % vehicle. Also, in [2], the “Effect on VMAT2 activity, sustained” value is given as “significant upregulation of VMAT2 activity”; the “Emax, % vehicle (mean ± SEM)” value worked out at 223.92 ± 11.02 % vehicle; the Emax concentration was found to be 31.62 µM; the “Hill slope (upregulation)” value is listed as 0.777.
As to `CNCCC=C1c2ccccc2CCc2ccccc21` [NOR, Nortriptyline], in series [1], the IC50 stood at 13.3 µM; the “Hill Slope (inhibition)” value is listed as “–0.920”; the “Imax, % vehicle (mean ± SEM)” value is recorded as 8.73 ± 1.11 % vehicle. Further, in series [2], the “Effect on VMAT2 activity, sustained” value was “significant upregulation of VMAT2 activity”; the “Emax, % vehicle (mean ± SEM)” value was determined as 207.90 ± 18.90 % vehicle; the Emax concentration is 31.62 µM; the “Hill slope (upregulation)” value was 0.915.
